pIC50: −log10 of the molar value. Counter-ions that a name gives are not always drawn. Like-named read-outs stand apart in the source and are kept apart here.

25 molecules from US9440978B2, “Imidazolo-, oxazolo-, and thiazolopyrimidine modulators of TRPV1” (Janssen Pharmaceutica NV, priority 2007, dated 2016) can be followed below.

The target in one test is T1, human TRPV1 (Homo sapiens, UniProt Q8NER1).
T1 construct: expressed in transfected cells; host or cells: HEK293
In words: Block of capsaicin-induced Ca2+ influx, human assay (hTRPV1/HEK293, FLIPR). The class given is cell-based. Conditions: HEK293 cells transfected with human TRPV1; 150 nM capsaicin challenge; mean; > value = solubility limit in assay medium.

In the next test the target is T2, rat TRPV1 (Rattus norvegicus, UniProt O35433).
T2 construct: expressed in transfected cells; host or cells: HEK293
T2 sequence (O35433 whole entry): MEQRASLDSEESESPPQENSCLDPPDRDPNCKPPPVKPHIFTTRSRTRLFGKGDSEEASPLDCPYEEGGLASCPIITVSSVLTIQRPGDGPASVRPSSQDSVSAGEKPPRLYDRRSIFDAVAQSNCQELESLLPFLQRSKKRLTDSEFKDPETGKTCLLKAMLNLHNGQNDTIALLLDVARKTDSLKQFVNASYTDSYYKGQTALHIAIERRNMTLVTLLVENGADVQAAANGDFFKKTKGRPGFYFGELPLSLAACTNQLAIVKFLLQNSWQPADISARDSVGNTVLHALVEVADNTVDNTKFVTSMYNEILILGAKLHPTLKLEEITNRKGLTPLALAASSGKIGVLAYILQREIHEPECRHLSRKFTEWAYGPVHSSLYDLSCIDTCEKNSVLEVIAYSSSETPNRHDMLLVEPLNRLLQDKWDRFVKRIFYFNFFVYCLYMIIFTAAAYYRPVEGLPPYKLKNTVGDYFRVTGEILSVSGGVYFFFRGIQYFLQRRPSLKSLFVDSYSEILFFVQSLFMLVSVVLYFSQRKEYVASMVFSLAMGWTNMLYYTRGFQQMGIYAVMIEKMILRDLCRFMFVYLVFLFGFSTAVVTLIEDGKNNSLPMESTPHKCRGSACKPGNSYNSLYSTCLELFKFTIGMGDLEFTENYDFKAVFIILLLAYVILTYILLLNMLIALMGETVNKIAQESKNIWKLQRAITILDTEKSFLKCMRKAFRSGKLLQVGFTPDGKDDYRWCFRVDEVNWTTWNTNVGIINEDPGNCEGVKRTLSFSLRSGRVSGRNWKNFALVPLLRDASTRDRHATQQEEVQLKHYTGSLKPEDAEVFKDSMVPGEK
In words: Block of capsaicin-induced Ca2+ influx, rat assay (rTRPV1/HEK293, FLIPR). Format: cell-based. The procedure, abridged:
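HEK293 cells expressing rat TRPV1, Fluo-3 loaded, preincubated 30 min with compound in 20 μM Ca2+ buffer (serial three-fold dilutions, usually from 10 μM, duplicate). Capsaicin-evoked fluorescence change over 100 s measured on FLIPR; IC50 by non-linear regression, averaged across runs.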

Where [1] appears, read: HEK293 cells transfected with rat TRPV1, capsaicin challenge, mean, > value = solubility limit in assay medium, read-out: Rat IC50.

T1 sequence (Q8NER1 whole entry): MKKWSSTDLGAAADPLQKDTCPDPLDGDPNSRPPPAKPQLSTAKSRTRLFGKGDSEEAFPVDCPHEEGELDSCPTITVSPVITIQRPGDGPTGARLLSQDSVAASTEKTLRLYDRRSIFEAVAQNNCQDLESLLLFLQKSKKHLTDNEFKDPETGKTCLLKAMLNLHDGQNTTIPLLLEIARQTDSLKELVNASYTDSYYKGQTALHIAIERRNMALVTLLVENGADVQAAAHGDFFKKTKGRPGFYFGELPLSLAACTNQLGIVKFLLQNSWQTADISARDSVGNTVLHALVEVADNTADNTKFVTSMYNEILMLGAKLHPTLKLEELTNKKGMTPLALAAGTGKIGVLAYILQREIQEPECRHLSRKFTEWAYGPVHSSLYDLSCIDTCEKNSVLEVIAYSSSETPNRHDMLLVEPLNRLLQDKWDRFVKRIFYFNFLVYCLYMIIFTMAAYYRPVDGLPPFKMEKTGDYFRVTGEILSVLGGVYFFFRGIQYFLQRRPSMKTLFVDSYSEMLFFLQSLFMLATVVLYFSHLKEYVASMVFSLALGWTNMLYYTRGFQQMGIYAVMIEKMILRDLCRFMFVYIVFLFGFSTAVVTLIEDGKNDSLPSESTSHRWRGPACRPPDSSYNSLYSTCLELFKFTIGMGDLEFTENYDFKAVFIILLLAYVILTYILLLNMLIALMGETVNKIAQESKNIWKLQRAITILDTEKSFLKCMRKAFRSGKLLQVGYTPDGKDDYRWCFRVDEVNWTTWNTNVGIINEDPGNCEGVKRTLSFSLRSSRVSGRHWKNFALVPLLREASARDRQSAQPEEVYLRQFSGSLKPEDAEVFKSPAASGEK

Turning to `FC(F)(F)c1ccc(Nc2nc(NC3CC3)nc3sc(Cc4c(Cl)cccc4Cl)nc23)cc1` [Example 78, N^5-Cyclopropyl-2-(2,6-dichloro-benzyl)-N^7-(4-trifluoromethyl-phenyl)-thiazolo[5,4-d]pyrimidine-5,7-diamine], the figures for the negative logarithm of the IC50 (pIC50) against human TRPV1 and at rat TRPV1 (setting [1]) were 6.50 and 6.67, respectively.
The matching figures for `FC(F)(F)c1ccc(Nc2nc(NC3CCC3)nc3sc(Cc4c(Cl)cccc4Cl)nc23)cc1` [Example 79, N^5-Cyclobutyl-2-(2,6-dichloro-benzyl)-N^7-(4-trifluoromethyl-phenyl)-thiazolo[5,4-d]pyrimidine-5,7-diamine]: 6.98 and 7.49.
The matching figures for `CC(C)CN(CC(C)C)c1nc(Nc2ccc(C(F)(F)F)cc2)c2nc(Cc3c(Cl)cccc3Cl)sc2n1` [Example 80, 2-(2,6-Dichloro-benzyl)-N^5,N^5-diisobutyl-N^7-(4-trifluoromethyl-phenyl)-thiazolo[5,4-d]pyrimidine-5,7-diamine]: 5.33 and 5.39.
The matching figures for `CC(C)CN1CCN(c2nc(Nc3ccc(C(F)(F)F)cc3)c3nc(Cc4c(Cl)cccc4Cl)sc3n2)CC1` [Example 83, [2-(2,6-Dichloro-benzyl)-5-(4-isobutyl-piperazin-1-yl)-thiazolo[5,4-d]pyrimidin-7-yl]-(4-trifluoromethyl-phenyl)-amine trifluoroacetic acid salt]: 6.87 and 7.92.
Consider `FC(F)(F)c1ccc(Nc2nc(NCc3ccccn3)nc3sc(Cc4c(Cl)cccc4Cl)nc23)cc1` [Example 84, 2-(2,6-Dichloro-benzyl)-N^5-pyridin-2-ylmethyl-N^7-(4-trifluoromethyl-phenyl)-thiazolo[5,4-d]pyrimidine-5,7-diamine trifluoroacetic acid salt], for which the pIC50 against human TRPV1 was 6.58; at rat TRPV1 (setting [1]), 7.42.
Take `FC(F)(F)c1ccc(Nc2nc(NCc3cccnc3)nc3sc(Cc4c(Cl)cccc4Cl)nc23)cc1` [Example 85, 2-(2,6-Dichloro-benzyl)-N^5-pyridin-3-ylmethyl-N^7-(4-trifluoromethyl-phenyl)-thiazolo[5,4-d]pyrimidine-5,7-diamine trifluoroacetic acid salt]: the pIC50 against human TRPV1 was 6.36; on rat TRPV1 (setting [1]), 6.95.
Taken in the same sequence, the figures for `FC(F)(F)c1ccc(Nc2nc(NCc3ccncc3)nc3sc(Cc4c(Cl)cccc4Cl)nc23)cc1` [Example 86, 2-(2,6-Dichloro-benzyl)-N^5-pyridin-4-ylmethyl-N^7-(4-trifluoromethyl-phenyl)-thiazolo[5,4-d]pyrimidine-5,7-diamine trifluoroacetic acid salt] were 5.97 and 6.73.
Consider `CC(Nc1nc(Nc2ccc(C(F)(F)F)cc2)c2nc(Cc3c(Cl)cccc3Cl)sc2n1)c1ccccn1` (centres unmarked) [Example 87, 2-(2,6-Dichlorobenzyl)-N^5-(1-pyridin-2-ylethyl)-N^7-[4-(trifluoromethyl)phenyl][1,3]thiazolo[5,4-d]pyrimidine-5,7-diamine], for which the results for the pIC50 against human TRPV1 and on rat TRPV1 (setting [1]) were 7.30 and 7.68, respectively.
The matching figures for `CCN1CCCC1CNc1nc(Nc2ccc(C(F)(F)F)cc2)c2nc(Cc3c(Cl)cccc3Cl)sc2n1` (centres unmarked) [Example 88, 2-(2,6-Dichlorobenzyl)-N^5-[(1-ethylpyrrolidin-2-yl)methyl]-N^7-[4-(trifluoromethyl)phenyl][1,3]thiazolo[5,4-d]pyrimidine-5,7-diamine]: 6.02 and 5.98.
The matching figures for `FC(F)(F)c1ccc(Nc2nc(NCC3CCCCN3)nc3sc(Cc4c(Cl)cccc4Cl)nc23)cc1` (centres unmarked) [Example 90, 2-(2,6-Dichlorobenzyl)-N^5-(piperidin-2-ylmethyl)-N^7-[4-(trifluoromethyl)phenyl][1,3]thiazolo[5,4-d]pyrimidine-5,7-diamine hydrochloride salt]: 5.22 and 5.01.
`FC(F)(F)c1ccc(Nc2nc(NCC3CCCNC3)nc3sc(Cc4c(Cl)cccc4Cl)nc23)cc1` (centres unmarked) [Example 91, 2-(2,6-Dichlorobenzyl)-N^5-(piperidin-3-ylmethyl)-N^7-[4-(trifluoromethyl)phenyl][1,3]thiazolo[5,4-d]pyrimidine-5,7-diamine hydrochloride salt]: the values for the pIC50 at human TRPV1 and on rat TRPV1 (setting [1]) were 5.39 and 5.50, respectively.
The matching figures for `FC(F)(F)c1ccc(Nc2nc(NCC3CCNCC3)nc3sc(Cc4c(Cl)cccc4Cl)nc23)cc1` [Example 92, 2-(2,6-Dichlorobenzyl)-N^5-(piperidin-4-ylmethyl)-N^7-[4-(trifluoromethyl)phenyl][1,3]thiazolo[5,4-d]pyrimidine-5,7-diamine hydrochloride salt]: 5.33 and 5.36.
On to `FC(F)(F)c1cnc(Nc2ncnc3sc(Cc4c(Cl)cccc4Cl)nc23)cn1` [Example 93, [2-(2,6-Dichloro-benzyl)-thiazolo[5,4-d]pyrimidin-7-yl]-(5-trifluoromethyl-pyrazin-2-yl)-amine], for which the pIC50 at human TRPV1 is 6.56; at rat TRPV1 (setting [1]), 6.64.
On to `FC(F)(F)c1ccc(Nc2ncnc3sc(Cc4c(Cl)cccc4Cl)nc23)nc1` [Example 94, [2-(2,6-Dichloro-benzyl)-thiazolo[5,4-d]pyrimidin-7-yl]-(5-trifluoromethyl-pyridin-2-yl)-amine], for which the pIC50 against human TRPV1 is 6.03; on rat TRPV1 (setting [1]), 6.61.
With `FC(F)(F)c1ccc(Nc2ncnc3sc(Cc4ccccc4C(F)(F)F)nc23)nc1` [Example 95, 2-[2-(Trifluoromethyl)benzyl]-N-[5-(trifluoromethyl)pyridin-2-yl][1,3]thiazolo[5,4-d]pyrimidin-7-amine], the pIC50 on human TRPV1 was 6.53; at rat TRPV1 (setting [1]), 6.92.
Turning to `FC(F)(F)c1ccc(Nc2ncnc3sc(Cc4ccccc4Cl)nc23)nc1` [Example 96, [2-(2-Chloro-benzyl)-thiazolo[5,4-d]pyrimidin-7-yl]-(5-trifluoromethyl-pyridin-2-yl)-amine], the pIC50 was 6.33 against human TRPV1 and 6.65 at rat TRPV1 (setting [1]).
Taken in the same sequence, the figures for `Cc1nc(Nc2ccc(C(F)(F)F)cn2)c2nc(Cc3c(Cl)cccc3Cl)sc2n1` [Example 97, [2-(2,6-Dichloro-benzyl)-5-methyl-thiazolo[5,4-d]ovrimidin-7-yl]-(5-trifluoromethyl-hyridin-2-yl)-amine] were 5.99 and 6.80.
Taken in the same sequence, the figures for `N#Cc1ccccc1Cc1nc2c(Nc3ccc(C(F)(F)F)cc3)ncnc2s1` [Example 100, 2-[7-(4-Trifluoromethyl-phenylamino)-thiazolo[5,4-d]pyrimidin-2-ylmethyl]-benzonitrile] were 6.90 and 7.21.
Taken in the same sequence, the figures for `COc1nc(Nc2ccc(C(F)(F)F)cc2)c2nc(Cc3c(Cl)cccc3Cl)sc2n1` [Example 101, [2-(2,6-Dichloro-benzyl)-5-methoxy-thiazolo[5,4-d]pyrimidin-7-yl]-(4-trifluoromethyl-phenyl)-amine] were 6.68 and 7.47.
Take `CC(C)Oc1nc(Nc2ccc(C(F)(F)F)cc2)c2nc(Cc3c(Cl)cccc3Cl)sc2n1` [Example 102, [2-(2,6-Dichloro-benzyl)-5-isopropoxy-thiazolo[5,4-d]pyrimidin-7-yl]-(4-trifluoromethyl-phenyl)-amine]: the figures for the pIC50 against human TRPV1 and at rat TRPV1 (setting [1]) were 6.73 and 7.13, respectively.
As to `CC(C)[Si](Sc1ccccc1Cc1nc2c(Nc3ccc(C(F)(F)F)cc3)ncnc2s1)(C(C)C)C(C)C` [Example 104, (4-Trifluoromethyl-phenyl)-[2-(2-triisopropylsilanylsulfanyl-benzyl)-thiazolo[5,4-d]pyrimidin-7-yl]-amine], the pIC50 on human TRPV1 was 6.90; against rat TRPV1, 7.16.
Take `FC(F)(F)c1ccc(Nc2ncnc3sc(Cc4ccccc4-c4ccccc4)nc23)cc1` [Example 105, (2-Biphenyl-2-ylmethylthiazolo[5,4-d]pyrimidin-7-yl)-(4-trifluoromethylphenyl)-amine]: the pIC50 at human TRPV1 was 5.79; on rat TRPV1 (setting [1]), 5.91.
The matching figures for `Oc1ccccc1-c1ccccc1Cc1nc2c(Nc3ccc(C(F)(F)F)cc3)ncnc2s1` [Example 106, 2′-[7-(4-Trifluoromethylphenylamino)-thiazolo[5,4-d]pyrimidin-2-ylmethyl]-biphenyl-2-ol]: 6.00 and 6.46.
The matching figures for `NC(=O)c1ccc(-c2ccccc2Cc2nc3c(Nc4ccc(C(F)(F)F)cc4)ncnc3s2)cc1` [Example 107, 2′-[7-(4-Trifluoromethylphenylamino)-thiazolo[5,4-d]pyrimidin-2-ylmethyl]-biphenyl-4-carboxylic acid amide]: 5.16 and 5.81.
Taken in the same sequence, the figures for `FC(F)(F)c1ccc(Nc2ncnc3[nH]c(Cc4c(Cl)cccc4Cl)nc23)cc1` [Example 109, [8-(2,6-Dichloro-benzyl)-9H-purin-6-yl]-(4-trifluoromethyl-phenyl)-amine trifluoroacetic acid salt] were 6.15 and 6.94.
